According to PubChem BioAssay (NCI):
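All cell lines were grown in 96-well plates and treated with compound for 48 hours. Abbreviation: GI50, concentration required for 50% inhibition of growth. The concentration for full growth arrest is given as TGI.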

How the values were obtained:
Assay in all cases: DTP human tumour cell line panel, 48 h
UACC-62 melanoma = system: UACC-62 melanoma
HOP-92 NSCLC = system: HOP-92 NSCLC
SNB-75 CNS = system: SNB-75 CNS
KM12 colon = system: KM12 colon
BT-549 breast = system: BT-549 breast
U251 CNS = system: U251 CNS
NCI-H23 lung = system: NCI-H23 lung
DU-145 prostate = system: DU-145 prostate
ACHN renal = system: ACHN renal
COLO 205 colon = system: COLO 205 colon
UO-31 renal = system: UO-31 renal
HOP-62 NSCLC = system: HOP-62 NSCLC
A549 NSCLC = system: A549 NSCLC
NCI/ADR-RES ovarian = system: NCI/ADR-RES ovarian
TK-10 renal = system: TK-10 renal
RPMI-8226 leukemia = system: RPMI-8226 leukemia
NCI-H522 lung = system: NCI-H522 lung
CAKI-1 renal = system: CAKI-1 renal
SK-MEL-2 melanoma = system: SK-MEL-2 melanoma
HT29 colon = system: HT29 colon
PC-3 prostate = system: PC-3 prostate
MALME-3M melanoma = system: MALME-3M melanoma
HCC-2998 colon = system: HCC-2998 colon
M14 melanoma = system: M14 melanoma
OVCAR-4 ovarian = system: OVCAR-4 ovarian
SW-620 colon = system: SW-620 colon
SF-295 CNS = system: SF-295 CNS
HS 578T breast = system: HS 578T breast
SK-MEL-28 melanoma = system: SK-MEL-28 melanoma
CCRF-CEM leukemia = system: CCRF-CEM leukemia
SK-MEL-5 melanoma = system: SK-MEL-5 melanoma
HL-60(TB) leukemia = system: HL-60(TB) leukemia
HCT-15 colon = system: HCT-15 colon
UACC-257 melanoma = system: UACC-257 melanoma
SF-268 CNS = system: SF-268 CNS
K-562 leukemia = system: K-562 leukemia
OVCAR-8 ovarian = system: OVCAR-8 ovarian
OVCAR-5 ovarian = system: OVCAR-5 ovarian
SR leukemia = system: SR leukemia
NCI-H226 lung = system: NCI-H226 lung
786-0 renal = system: 786-0 renal
SNB-19 CNS = system: SNB-19 CNS
HCT-116 colon = system: HCT-116 colon
SN12C renal = system: SN12C renal
MOLT-4 leukemia = system: MOLT-4 leukemia
SK-OV-3 ovarian = system: SK-OV-3 ovarian
NCI-H460 lung = system: NCI-H460 lung
EKVX NSCLC = system: EKVX NSCLC
MCF7 breast = system: MCF7 breast
T-47D breast = system: T-47D breast
LOX IMVI melanoma = system: LOX IMVI melanoma
MDA-MB-435 = system: MDA-MB-435
MDA-MB-231 breast = system: MDA-MB-231 breast
OVCAR-3 ovarian = system: OVCAR-3 ovarian
RXF 393 renal = system: RXF 393 renal
A498 renal = system: A498 renal
IGROV1 ovarian = system: IGROV1 ovarian
SF-539 CNS = system: SF-539 CNS

`CN(C)CCNC(=O)c1ccc(-c2nc3ccc4[nH]ncc4c3c3c2C2CCC3C2)cc1` (stereo unspecified) was tested, and the GI50 (UACC-62 melanoma) was 0.898 µM, the TGI (UACC-62 melanoma) was 3.72 µM and the GI50 (HOP-92 NSCLC) was 1.74 µM. The TGI (HOP-92 NSCLC) was 4.25 µM, the GI50 (SNB-75 CNS) was 0.341 µM and the TGI (SNB-75 CNS) was 1.14 µM. It also gave a GI50 (KM12 colon) of 0.534 µM, a TGI (KM12 colon) of 3.36 µM and a GI50 (BT-549 breast) of 1.25 µM. For the same compound, the TGI (BT-549 breast) was 2.93 µM, the GI50 (U251 CNS) was 1.17 µM and the TGI (U251 CNS) was 8.89 µM. It also gave a GI50 (NCI-H23 lung) of 1.63 µM, a TGI (NCI-H23 lung) of 5.94 µM and a GI50 (DU-145 prostate) of 0.965 µM. It also gave a TGI (DU-145 prostate) of 6 µM, a GI50 (ACHN renal) of 0.564 µM and a TGI (ACHN renal) of 6.91 µM. The GI50 (COLO 205 colon) was 0.569 µM, the TGI (COLO 205 colon) was 4.19 µM and the GI50 (UO-31 renal) was 2.03 µM. The TGI (UO-31 renal) was 5.18 µM, the GI50 (HOP-62 NSCLC) was 1.29 µM and the TGI (HOP-62 NSCLC) was 5.7 µM. The GI50 (A549 NSCLC) was 1.65 µM, the TGI (A549 NSCLC) was 12.8 µM and the GI50 (NCI/ADR-RES ovarian) was 8.3 µM. For the same compound, the TGI (NCI/ADR-RES ovarian) was 26.8 µM, the GI50 (TK-10 renal) was 0.723 µM and the TGI (TK-10 renal) was 8.02 µM. For the same compound, the GI50 (RPMI-8226 leukemia) was 1.35 µM, the TGI (RPMI-8226 leukemia) was 4.6 µM and the GI50 (NCI-H522 lung) was 1.25 µM. For the same compound, the TGI (NCI-H522 lung) was 4.33 µM, the GI50 (CAKI-1 renal) was 0.93 µM and the TGI (CAKI-1 renal) was 5.25 µM. The GI50 (SK-MEL-2 melanoma) was 1.55 µM, the TGI (SK-MEL-2 melanoma) was 3.74 µM and the GI50 (HT29 colon) was 1.84 µM. It also gave a TGI (HT29 colon) of 13 µM, a GI50 (PC-3 prostate) of 1.24 µM and a TGI (PC-3 prostate) of 7.22 µM. The GI50 (MALME-3M melanoma) was 1.67 µM, the TGI (MALME-3M melanoma) was 3.96 µM and the GI50 (HCC-2998 colon) was 1.74 µM. It also gave a TGI (HCC-2998 colon) of 5.64 µM, a GI50 (M14 melanoma) of 0.809 µM and a TGI (M14 melanoma) of 2.75 µM. It also gave a GI50 (OVCAR-4 ovarian) of 1.6 µM, a TGI (OVCAR-4 ovarian) of 5.53 µM and a GI50 (SW-620 colon) of 0.473 µM. It also gave a TGI (SW-620 colon) of 5.16 µM, a GI50 (SF-295 CNS) of 2.01 µM and a TGI (SF-295 CNS) of 5.39 µM. The GI50 (HS 578T breast) was 0.494 µM, the TGI (HS 578T breast) was 2.62 µM and the GI50 (SK-MEL-28 melanoma) was 1.84 µM. For the same compound, the TGI (SK-MEL-28 melanoma) was 5.64 µM, the GI50 (CCRF-CEM leukemia) was 1.01 µM and the TGI (CCRF-CEM leukemia) was 10.1 µM. It also gave a GI50 (SK-MEL-5 melanoma) of 1.49 µM, a TGI (SK-MEL-5 melanoma) of 4.57 µM and a GI50 (HL-60(TB) leukemia) of 0.388 µM. It also gave a TGI (HL-60(TB) leukemia) of 2.52 µM, a GI50 (HCT-15 colon) of 2.44 µM and a TGI (HCT-15 colon) of 11.4 µM. The GI50 (UACC-257 melanoma) was 3.07 µM, the TGI (UACC-257 melanoma) was 9.95 µM and the GI50 (SF-268 CNS) was 0.967 µM. The TGI (SF-268 CNS) was 3.3 µM, the GI50 (K-562 leukemia) was 1.29 µM and the TGI (K-562 leukemia) was 9.4 µM. For the same compound, the GI50 (OVCAR-8 ovarian) was 1.4 µM, the TGI (OVCAR-8 ovarian) was 9.81 µM and the GI50 (OVCAR-5 ovarian) was 3.01 µM. The TGI (OVCAR-5 ovarian) was 9.85 µM, the GI50 (SR leukemia) was 0.254 µM and the TGI (SR leukemia) was 2.65 µM. For the same compound, the GI50 (NCI-H226 lung) was 1.28 µM, the TGI (NCI-H226 lung) was 5.43 µM and the GI50 (786-0 renal) was 0.882 µM. It also gave a TGI (786-0 renal) of 4.92 µM, a GI50 (SNB-19 CNS) of 2.69 µM and a TGI (SNB-19 CNS) of 9.81 µM. For the same compound, the GI50 (HCT-116 colon) was 0.432 µM, the TGI (HCT-116 colon) was 9.13 µM and the GI50 (SN12C renal) was 1.82 µM. It also gave a TGI (SN12C renal) of 6.88 µM, a GI50 (MOLT-4 leukemia) of 1.1 µM and a TGI (MOLT-4 leukemia) of 5.56 µM. For the same compound, the GI50 (SK-OV-3 ovarian) was 0.348 µM, the TGI (SK-OV-3 ovarian) was 4.28 µM and the GI50 (NCI-H460 lung) was 1.56 µM. For the same compound, the TGI (NCI-H460 lung) was 4.79 µM, the GI50 (EKVX NSCLC) was 1.72 µM and the TGI (EKVX NSCLC) was 6.91 µM. The GI50 (MCF7 breast) was 0.889 µM, the TGI (MCF7 breast) was 6.7 µM and the GI50 (T-47D breast) was 2.25 µM. The TGI (T-47D breast) was 7.86 µM, the GI50 (LOX IMVI melanoma) was 1.19 µM and the TGI (LOX IMVI melanoma) was 2.79 µM. It also gave a GI50 (MDA-MB-435) of 1.28 µM, a TGI (MDA-MB-435) of 4.45 µM and a GI50 (MDA-MB-231 breast) of 1.64 µM. It also gave a TGI (MDA-MB-231 breast) of 4.11 µM, a GI50 (OVCAR-3 ovarian) of 1.71 µM and a TGI (OVCAR-3 ovarian) of 5.9 µM. It also gave a GI50 (RXF 393 renal) of 0.267 µM, a TGI (RXF 393 renal) of 1.18 µM and a GI50 (A498 renal) of 0.22 µM. The TGI (A498 renal) was 1.22 µM, the GI50 (IGROV1 ovarian) was 1.52 µM and the TGI (IGROV1 ovarian) was 6.2 µM. It also gave a GI50 (SF-539 CNS) of 0.702 µM and a TGI (SF-539 CNS) of 2.39 µM.
